# Results reported in US20140170237A1, “ANTIMICROBIAL COMPOSITIONS CONTAINING MIXTURES OF FATTY AND HYDROXYL CARBOXYLIC ACIDS” (priority 2012, published 2014).
# “Also recorded” adds a separate entry of the source.
# Test: Cold solubility / 4 C storage of commercial fatty acids and their mixtures
# Type: physicochemical
# Details: 1 day, no solvent or surfactant
compound,measurement,value
"CCCCCCCCCCCC(=O)O [C12, dodecanoic]","4 C. Storage, physical state",solid or formed crystals; also recorded: Solid
